In patent US8575160B2, “Imidazole derivatives as aldosterone synthase inhibitors” (Novartis AG, priority 2009, dated 2013):

Experiments:
[1] = molecular target: T1, aldosterone synthase (CYP11B2) (Homo sapiens, UniProt P19099); experiment: cellular aldosterone production in NCI-H295R cells (aldosterone synthase inhibition); type: cell-based
T1 construct: host or cells: NCI-H295R
T1 sequence (P19099 25-503): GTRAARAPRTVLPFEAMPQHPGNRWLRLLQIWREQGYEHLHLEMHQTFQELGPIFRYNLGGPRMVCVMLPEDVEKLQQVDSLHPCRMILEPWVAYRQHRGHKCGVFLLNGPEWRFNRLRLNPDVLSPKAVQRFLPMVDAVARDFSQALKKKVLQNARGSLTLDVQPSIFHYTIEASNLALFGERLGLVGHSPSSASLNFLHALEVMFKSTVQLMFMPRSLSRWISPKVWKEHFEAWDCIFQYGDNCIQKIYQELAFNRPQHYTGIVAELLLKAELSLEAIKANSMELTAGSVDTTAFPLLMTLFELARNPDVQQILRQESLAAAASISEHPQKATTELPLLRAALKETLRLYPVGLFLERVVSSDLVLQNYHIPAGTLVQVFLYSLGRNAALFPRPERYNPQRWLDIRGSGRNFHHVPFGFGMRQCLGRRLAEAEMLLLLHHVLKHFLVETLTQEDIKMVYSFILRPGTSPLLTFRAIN
Description: In particular, the aldosterone synthase inhibitory activities in vitro can be determined by the following assay.
Human adrenocortical carcinoma NCI-H295R cell line was obtained from American Type Culture Collection (Manassas, Va.). Insulin/transferrin/selenium (ITS)-A supplement (100×), DMEM/F-12, antibiotic/antimycotic (100×), and fetal bovine serum (FBS) were purchased from Invitrogen (Carlsbad, Calif.). Anti-mouse PVT scintillation proximity assay (SPA) beads and NBS 96-well plates were obtained from GE Health Sciences (Piscataway, N.J.) and Corning (Acton, Mass.), respectively. Solid black 96-well flat bottom plates were purchased from Costar (Corning, N.Y.). Aldosterone and angiotensin (Ang II) were purchased from Sigma (St. Louis, Mo.). D[1,2,6,7-^3H(N)]aldosterone was acquired from PerkinElmer (Boston, Mass.). Nu-serum was a product of BD Biosciences (Franklin Lakes, N.J.).
For in vitro measurement of aldosterone activity, human adrenocortical carcinoma NCI-H295R cells are seeded in NBS 96-well plates at a density of 25,000 cells/well in 100 μl of a growth medium containing DMEM/F12 supplemented with 10% FCS, 2.5% Nu-serum, 1 μg ITS/ml, and 1× antibiotic/antimycotic. The medium is changed after culturing for 3 days at 37° C. under an atmosphere of 5% CO2/95% air. On the following day, cells are rinsed with 100 μl of phosphate-buffered saline (PBS) and incubated with 100 μl of treatment medium containing 1 μM Ang II and a compound at different concentrations in quadruplicate wells at 37° C. for 24 hr. At the end of incubation, 50 μl of medium is withdrawn from each well for measurement of aldosterone production by an SPA using mouse anti-aldosterone monoclonal antibodies.
Measurement of aldosterone activity can also be performed using a 96-well plate format. Each test sample is incubated with 0.02 μCi of D[1,2,6,7-^3H(N)]aldosterone and 0.3 μg of anti-aldosterone antibody in PBS containing 0.1% Triton X-100, 0.1% bovine serum albumin, and 12% glycerol in a total volume of 200 μl at room temperature for 1 hr. Anti-mouse PVT SPA beads (50 μl) are then added to each well and incubated overnight at room temperature prior to counting in a Microbeta plate counter. The amount of aldosterone in each sample is calculated by comparing with a standard curve generated using known quantities of the hormone.
(§1) Inhibition of the release of certain steroids can be used as a measure of the respective enzyme inhibition by the added test compounds. The dose-dependent inhibition of enzymic activity by a compound is calculated by means of an inhibition plot which is characterized by an IC50.
(§2) The IC50 values for active test compounds are ascertained by a simple linear regression analysis in order to construct inhibition plots without data weighting. The inhibition plot is calculated by fitting a 4-parameter logistic function to the raw data points using the least squares method. The equation of the 4-parameter logistic function is calculated as follows: Y=(d−a)/((1+(x/c)b))+a, where: a=minimum data level, b=gradient, I […], d=maximum data level, x=inhibitor concentration.

CYP11B1 = molecular target: T2, CYP11B1 (Homo sapiens, UniProt P15538); experiment: cellular cortisol production in NCI-H295R cells (CYP11B1 inhibition); type: cell-based
T2 construct: the NCI-H295R cells have CYP11 B1 (steroid 11 β-hydroxylase); host or cells: NCI-H295R
T2 sequence (P15538 25-503): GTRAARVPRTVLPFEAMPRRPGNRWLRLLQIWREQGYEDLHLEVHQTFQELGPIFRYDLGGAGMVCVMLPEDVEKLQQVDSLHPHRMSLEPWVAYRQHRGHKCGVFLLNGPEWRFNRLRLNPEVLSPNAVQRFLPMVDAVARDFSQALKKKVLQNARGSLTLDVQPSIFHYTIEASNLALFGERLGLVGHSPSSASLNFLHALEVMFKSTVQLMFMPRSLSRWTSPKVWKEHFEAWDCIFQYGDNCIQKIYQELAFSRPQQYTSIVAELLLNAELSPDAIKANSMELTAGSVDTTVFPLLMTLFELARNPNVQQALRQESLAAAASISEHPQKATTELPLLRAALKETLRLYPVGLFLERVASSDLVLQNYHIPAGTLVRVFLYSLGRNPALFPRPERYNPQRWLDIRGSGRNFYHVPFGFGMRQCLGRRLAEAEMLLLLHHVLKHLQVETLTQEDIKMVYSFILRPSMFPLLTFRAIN
Description: The in vitro inhibitory activities for CYP11B1 can be determined by the following assay.
The cell line NCI-H295R was originally isolated from an adrenocortical carcinoma and has been characterized in the literature through the stimulable secretion of steroid hormones and the presence of the enymes essential for steroidogenesis. Thus, the NCI-H295R cells have CYP11 B1 (steroid 11 β-hydroxylase). The cells show the physiological property of zonally undifferentiated human foetal adrenocortical cells which, however, have the capacity to produce the steroid hormones which are formed in the three, phenotypically distinguishable zones in the adult adrenal cortex.
The NCI-H295R cells (American Type Culture Collection, ATCC, Rockville, Md., USA) are grown in Dulbeoco's Modified Eagle'Ham F-12 Medium (DME/F12), which has been supplemented with Ulroser SF Serum (Soprachem, Cergy-Saint-Christophe, France), insulin, transferrin, selenite (I-T-S, Becton Dickinson Biosiences, Franklin lakes, NJ, USA) and antibiotics in 75 cm^2 cell culture vessels at 37° C. and in a 95% air-5% carbon dioxide atmosphere. The cells are subsequently transferred for colony formation into a 24-well incubation vessel. They are cultivated there in DME/F12 medium, which is now supplemented with 0.1% bovine serum instead of Ultroser SF for 24 hours. The experiment is initiated by cultivating the cells in DME/F12 medium which is supplemented with 0.1% bovine serum albumin and test compound, in the presence or absence of cell stimulants, for 72 hours. The test substance is added in a concentration range from 0.2 nanomolar to […]. Cell stimulants which can be used are angiotensin 11 (1 D or 100 nanomolar), potassium ions (16 millimolar), forskolin (10 micromolar) or a combination of two stimulants.
The excretion of aldosterone, cortisol, corticosterone and estradiol/estrone into the culture medium can be detected and quantified by commercially available, specific monoclonal antibodies in radioimmunoassays in accordance with the manufacturer's instructions.
as §1, §2

SMILES	IC50 [1] [µM]	IC50 (CYP11B1) [µM]
C=C[C@@]1(O)C[C@H](c2ccc(C#N)cc2F)n2cncc21 [Example 1-1, 3-fluoro-4-((5R,7S)-7-hydroxy-7-vinyl-6,7-dihydro-5H-pyrrolo[1,2-c]imidazol-5-yl)benzonitrile]	0.011	0.472
N#Cc1ccc([C@H]2C[C@](O)(c3cccc(C4CC4)c3)c3cncn32)c(F)c1 [Example 1-2, 4-((5R,7S)-7-(3-cyclopropylphenyl)-7-hydroxy-6,7-dihydro-5H-pyrrolo[1,2-c]imidazol-5-yl)-3-fluorobenzonitrile]	0.027	0.084
Cc1ccc([C@@]2(O)C[C@H](c3ccc(C#N)cc3F)n3cncc32)cc1C [Example 1-4, 4-((5R,7S)-7-(3,4-dimethylphenyl)-7-hydroxy-6,7-dihydro-5H-pyrrolo[1,2-c]imidazol-5-yl)-3-fluorobenzonitrile]	0.005	0.48
N#Cc1ccc([C@H]2C[C@](O)(CCc3ccccc3)c3cncn32)c(F)c1 [Example 1-12]	0.002	0.006
N#Cc1ccc([C@H]2C[C@](O)(c3ccc4c(c3)OCO4)c3cncn32)c(F)c1 [Example 1-13]	0.034	0.103
N#Cc1ccc([C@H]2C[C@](O)(c3ccc4ccccc4c3)c3cncn32)c(F)c1 [Example 1-16]	0.002	0.143
N#Cc1ccc([C@H]2C[C@@](O)(c3ccc4ccccc4c3)c3cncn32)c(F)c1 [Example 1-17]	0.001	0.014
N#Cc1ccc([C@H]2C[C@](O)(c3cccc(-c4ccc(F)cc4)c3)c3cncn32)c(F)c1 [Example 1-30]	0.025	0.522
CCc1ccc([C@@]2(O)C[C@H](c3ccc(C#N)cc3F)n3cncc32)cc1 [Example 1-32]	0.006	0.645
N#Cc1ccc([C@H]2CC[C@](O)(c3ccc(-c4ccccc4)cc3)c3cncn32)cc1 [Example 1-41]	0.072	0.135
Cn1c([C@@]2(O)C[C@H](c3ccc(C#N)cc3F)n3cncc32)cc2ccccc21 [Example 1-50]	0.007	1.8
N#Cc1ccc([C@H]2C[C@](O)(C#CC3CC3)c3cncn32)c(F)c1 [Example 1-52, 4-((5R,7S)-7-(cyclopropylethynyl)-7-hydroxy-6,7-dihydro-6H-pyrrolo[1,2-c]imidazol-5-yl)-3-fluorobenzonitrile]	0.142	0.273
CC1(C)[C@H](c2ccc(C#N)cc2F)n2cncc2[C@@]1(O)c1ccc(F)cc1 [Example 1-53, 3-fluoro-4-((5R,7R)-7-(4-fluorophenyl)-7-hydroxy-6,6-dimethyl-6,7-dihydro-5H-pyrrolo[1,2-c]imidazol-5-yl)benzonitrile]	0.042	0.22
COc1cc(-c2cccc([C@@]3(O)C[C@H](c4ccc(C#N)cc4F)n4cncc43)c2)ccn1 [Example 2-10]	0.006	0.338
Cc1cc(-c2ccc([C@@]3(O)C[C@H](c4ccc(C#N)cc4F)n4cncc43)cc2)ccn1 [Example 3-14]	0.064	10.2
N#Cc1ccc([C@H]2C[C@](O)(CC(=O)Nc3cccc(OC(F)(F)F)c3)c3cncn32)c(F)c1 [Example 4-15]	0.072	8.78
